Results reported in paper PMC9227536, “Prediction of Pharmacokinetics of IDP-73152 in Humans Using Physiologically-Based Pharmacokinetics” (Pharmaceutics, 2022).
Like-named read-outs stand apart in the source and are kept apart here.

Legend:
[1] = test system: methicilin-resistant Staphylococus aureus; conditions: infected mice, twice-a-day dosing; cited from earlier work
Stability in plasma, dog = format: in vitro ADME; conditions: dogs plasma
Description: The unbound fractions of IDP-73152 in various matrices were measured according to the manufacturer's instructions for the rapid equilibrium dialysis (RED) device (ThermoFisher Scientific, Waltham, MA, USA). Briefly, IDP-73152 was added to the plasma or the microsomal/hepatocyte incubation buffer from various species (i.e., mouse, rat, dog, and human for microsomal incubation; rat for hepatocyte incubation) to obtain final concentrations of the compound at 0.3, 1, and 3 μM. After the membrane insert was placed in the RED plate, the solution containing IDP-73152 was added (400 μL) to the sample chamber, and the dialysis buffer (600 μL) was added to the buffer chamber. The RED plate was sealed with parafilm and then incubated at 37 °C in the orbital shaker (Lab Companion, Daejeon, Korea) at 100 rpm for 5 h. […] The IDP-73152 concentration in the buffer/sample chambers (i.e., CBuffer Chamber and CSample Chamber) was determined by an assay. Thus, the fraction unbound was defined as:(2) % Fraction unbound=(CBuffer Chamber/CSample Chamber)×100% When necessary, the stability of IDP-73152 in the matrix was also determined at 5 h. […] Accordingly, the kinetics of IDP-73152 instability were determined in the rat blood at a final concentration of 0.3 μM. […]

[2] = Unbound fraction in hepatocyte incubation, rat; format: in vitro ADME; conditions: hepatocytes (hepatocyte incubation mixture), rats hepatocyte incubation, read-out: fu,hep
Description: The unbound fractions of IDP-73152 in various matrices were measured according to the manufacturer’s instructions for the rapid equilibrium dialysis (RED) device (ThermoFisher Scientific, Waltham, MA, USA). Briefly, IDP-73152 was added to the plasma or the microsomal/hepatocyte incubation buffer from various species (i.e., mouse, rat, dog, and human for microsomal incubation; rat for hepatocyte incubation) to obtain final concentrations of the compound at 0.3, 1, and 3 μM. After the membrane insert was placed in the RED plate, the solution containing IDP-73152 was added (400 µL) to the sample chamber, and the dialysis buffer (600 μL) was added to the buffer chamber. The RED plate was sealed with parafilm and then incubated at 37 °C in the orbital shaker (Lab Companion, Daejeon, Korea) at 100 rpm for 5 h. After a 50 μL aliquot was aspirated from both the sample and buffer chambers, an equal volume of protein-free buffer or blank medium was replaced in the aspirated sample or buffer to render the matrices compositionally identical. The IDP-73152 concentration in the buffer/sample chambers (i.e., CBuffer Chamber and CSample Chamber) was determined by an assay. Thus, the fraction unbound was defined as:(2) % Fraction unbound=(CBuffer Chamber/CSample Chamber)×100%

[3] = PK study in mice (intravenous and oral); format: in vivo, male ICR mice
Description: The in vivo experimental protocol was approved by the Institutional Animal Care and Use Committee of Research Laboratory at Ildong pharmaceutical Co., Ltd. (Ref. No.: IDL-PDF-001 and 09005-11004). Animals were acclimatized to the laboratory conditions for at least 1 week before the experiments and were kept in the standardized conditions (20–25 °C, 55 ± 5% humidity, and a 12 h light/dark cycle). The animals fasted overnight prior to drug administration, and food was resupplied 4 h post-dose. In this study, a single dose of IDP-73152 at 10 mg/kg (i.e., the injection volume of 5 mL/kg, IDP-73152 dissolved in saline) was intravenously administered to male ICR mice (body weight 18.2–21.4 g, Orient Bio Inc., Seongnam, Korea) via the tail vein. […] Blood samples (100 μL) were collected from the retroorbital plexus at 0.167, 0.333, 0.5, 1, 2, 4, or 8 h after the administration. Plasma was separated/collected from the blood samples by centrifugation for 5 min at 10,000× g/4 °C and stored at −80 °C until analysis. When necessary for a model independent PK analysis, a standard moment analysis was carried out with WinNonlin software using either representative (for the study with mice) or individual (for the study with rats, dogs, and humans) concentration–time profile(s). For the calculation of PBPK models, Berkeley Madonna 8.3.18 (Albany, CA, USA) was used with the fourth-order Runge–Kutta method for numerical integration.

[4] = male, ICR, mouse, plasma, oral 20 mg/kg

Compound: CC(C)(C)[C@H](NC(=O)[C@H](CC1CCCC1)CN(O)C=O)C(=O)N1CCC(NCc2cc(F)c(F)cc2F)CC1 [IDP-73152]
- ED50 (oral dose at which the survival rate was 50%) [1]: 16.6 mg/kg
- percentage remaining in plasma at 5 h (Stability in plasma, dog; 5 h, 37 °C): 101 ± 6%
- stability in plasma (Stability in plasma, dog; preliminary study): stable
- fraction unbound at 5 h [2]: 0.492 ± 0.068
- Vd ([3]; male, ICR, mouse, plasma, intravenous 10 mg/kg, moment analysis, read-out: Vss): 1.43 L/kg
- half-life ([3]; male, ICR, mouse, plasma, intravenous 10 mg/kg, read-out: t1/2 (converted)): 43.9 min
- clearance ([3]; male, ICR, mouse, plasma, intravenous 10 mg/kg, representative concentration–time profile, read-out: CLp (converted)): 25.3 mL/min/kg
- AUC(0-inf) ([3]; male, ICR, mouse, plasma, iv, 10 mg/kg, intravenous 10 mg/kg): 6590 ng·h/mL
- Cmax [3, 4]: 3100 ng/mL
- Tmax [3, 4]: 20 min
- bioavailability ([3]; male, ICR, mouse, plasma, oral 20 mg/kg vs intravenous 10 mg/kg, read-out: F (bioavailability)): 78.1%
- half-life ([3]; male, ICR, mouse, plasma, oral 20 mg/kg, read-out: t1/2 (terminal phase half-life) (converted)): 172 min
- AUC(0-inf) ([3]; male, ICR, mouse, plasma, po, 20 mg/kg, oral 20 mg/kg): 10900 ng·h/mL
- AUCinf ([3]; oral 20 mg/kg, 20 mg/kg): 10300 ng·h/mL
